Literature values as cited in patent US5952383A, “Pharmaceutical composition for oral delivery” (Negma-Steba International Development N.V., priority 1996, dated 1999).
Structures can show the parent of a compound that is named as a salt.

Columns and labels:
[1] = oral

Row | solubility in carbonate solutions and in tetrahydrofuran (carbonate solutions and tetrahydrofuran) | solubility in water and in alcohols (water and alcohols) | solubility in water and ethanol (water and ethanol) | absorption by the digestive tract [1] | solubility in water (water, EP-A-243,968) | SMILES | undesirable side effects ([1]; on account of incomplete absorption)
1 | sparingly soluble | virtually insoluble | virtually insoluble | not totally absorbed |  | CC(=O)Oc1cccc2c1C(=O)c1c(OC(C)=O)cc(C(=O)O)cc1C2=O [diacerein, diacetylrhein] | laxative effects
2 |  |  |  |  | water-soluble | CC(=O)Oc1cccc2c1C(=O)c1c(OC(C)=O)cc(C(=O)O)cc1C2=O [potassium salt of diacerein] | 
